Laboratory results: patent US9572830B2, “Uridine effects on dopamine release” (MASSACHUSETTS INSTITUTE OF TECHNOLOGY, priority 2004, dated 2017)

Tests used:
[1] = test system: neurotransmitter release in right corpus striatum; assay: Microdialysis of right corpus striatum of UMP-fed rats before, during and after potassium depolarization; assay type: in vivo, rat; conditions: striatal microdialysate
Procedure: (§1) Retired breeder rats consumed a diet containing normal chow (Harlan Tech Lad, Madison, Wis.) supplemented with or without uridine 5′-monophosphate (UMP) (2.5%, w/w)—at a final concentration of 500 mg/kg/day, for a period of six weeks. Microdialysis was performed with cannulas implanted directly within the right corpus striatum of the control and treated rats. Cannulas were implanted on day 1, and samples were collected on days 3 and 4. Micro-dialysates (22.5 microliter, collected over 15 minutes) were assayed for dopamine (DA), 3,4-dihydroxyphenylacetic acid (DOPAC), homovanillic acid (HVA), 5-hydroxy-tryptamine (5-HT) and 5-hydroxyindoleacetic acid (5-HIAA). Real-time neurotransmitter level measurements were taken on samples drawn prior to and following depolarization of the neuron membrane via local application of […] potassium chloride (KCl) solution. Animals were then sacrificed, and striatum, hippocampus and temporal cortex were assayed for DA, DOPAC, HVA, 5HT, 5HIAA, DNA, protein and phosphatidyl choline (PC) content. DA and metabolites in dialysates and tissue samples were determined using an ESA Coulochem 11 5100A detector (E1=−175 mV; E2=+325 mV; Eguard=350 mV) with an ESA Microdialysis Cell (model 5014B, ESA, North Chelmsford, Mass.). The mobile phase (MD-TM, ESA) consisted of 75 mM NaH2PO4, 1.7 mM 1-octanesulfonic acid, 100 ?l/L Triethylamine, 25 ?M EDTA, 10% acetonitrile, pH 3.0. The flow rate was 0.4 mL/min. The column (ESA MD 150, 3×150 mm, 3 ?m, 120 Å) was kept in a 40° C. column oven. Samples were injected to HPLC by an Alltech 580 autosampler (Alltech, Deerfield, Ill.) and maintained to 4° C. with a cooling tray during analysis. Data were captured by Alltech AllChrom™ data system, and analyzed with AllChrom plus™ software. A timeline program, which could change the detection gain during sample separation and detection, was used to make it possible to get low DA and high metabolites concentration data in dialysate through one injection. Real-time neurotransmitter levels were assayed by measuring the faradaic current at the respective oxidation potentials with a carbon fiber electrode inserted through the cannula.

[2] = test system: striatum; assay: Total tissue content of DA, 5-HT and metabolites in striatum after sacrifice; assay type: in vivo, rat; conditions: UMP-fed rats vs control
Procedure: as §1, with “injection.” for “injection. Real-time neurotransmitter levels were assayed by measuring the faradaic current at the respective oxidation potentials with a carbon fiber electrode inserted through the cannula.”

[3] = UMP-fed rat vs control, before stimulation
[4] = UMP-fed rat vs control, during and after stimulation
[5] = rats fed UMP 2.5% w/w in chow (500 mg/kg/day) for six weeks, depolarization by local 100 nm KCl, vs control rat
[6] = striatum and striatal extracellular fluid (ECF)

Which “basal level of 5-HIAA” value [1, 3] does the source give for `O=c1ccn([C@@H]2O[C@H](COP(=O)(O)O)[C@@H](O)[C@H]2O)c(=O)[nH]1` [UMP, uridine 5′-monophosphate] here?
The value was “lower basal levels”.

And the “basal level of DOPAC” value [1, 3]?
Its value is “lower basal levels”.

What about the “basal level of HVA” value [1, 3] of the same molecule?
The value was “lower basal levels”.

And the “release of 5-HIAA on potassium stimulation” value [1, 4]?
The value was “increased, although by a smaller margin than DA and 5-HT, after but not during stimulation”.

What about the “release of DOPAC on potassium stimulation” value [1, 4] of the same molecule?
The value was “increased, although by a smaller margin than DA and 5-HT, after but not during stimulation”.

What about the “release of HVA on potassium stimulation” value [1, 4] of the same molecule?
The value was “increased, although by a smaller margin than DA and 5-HT, after but not during stimulation”.

What about the “release of 5-HT during and after depolarization” value [1, 5] of the same molecule?
The value was “enhanced”.

What about the “release of DA during and after depolarization” value [1, 5] of the same molecule?
The value was “enhanced”.

What about the “release of DA during and after depolarization” value ([1]; rats fed UMP 2.5% w/w in chow (500 mg/kg/day) for six weeks, depolarization by local 100 nm KCl, vs control rat, listed as uridine monophosphate) of the same molecule?
The value was “significantly enhanced”.

What about the “total level of 5-HT in the striatum” value ([2]; striatal tissue) of the same molecule?
Its value is “did not affect”.

And the “total level of DA in the striatum” value ([2]; striatal tissue)?
Its value is “did not affect”.

And the “total striatal level of 5-HIAA” value [2, 6]?
The value was “slightly reduced”.

And the “total striatal level of DOPAC” value [2, 6]?
The value was “slightly reduced”.

What about the “total striatal level of HVA” value [2, 6] of the same molecule?
The value was “slightly reduced”.

And the “total striatal levels of DA metabolites” value ([2]; summary statement)?
The value was “decreased”.
